Data taken from patent publication US20240116985A1, “STAPLED PEPTIDES AND METHODS THEREOF” (priority 2020, published 2024).

What was measured:
[1] = target: T1, beta-catenin/TCF4 engagement (Homo sapiens, UniProt P35222); assay: Nano-BRET target engagement assay (B-cat-Halo & TCF4-Luc in HEK293 cells); type: cell-based; conditions: absolute IC50; read-out: NanoBRET Abs IC50
T1 construct: expressed in transfected cells; host or cells: HEK293
T1 sequence (P35222 1-781): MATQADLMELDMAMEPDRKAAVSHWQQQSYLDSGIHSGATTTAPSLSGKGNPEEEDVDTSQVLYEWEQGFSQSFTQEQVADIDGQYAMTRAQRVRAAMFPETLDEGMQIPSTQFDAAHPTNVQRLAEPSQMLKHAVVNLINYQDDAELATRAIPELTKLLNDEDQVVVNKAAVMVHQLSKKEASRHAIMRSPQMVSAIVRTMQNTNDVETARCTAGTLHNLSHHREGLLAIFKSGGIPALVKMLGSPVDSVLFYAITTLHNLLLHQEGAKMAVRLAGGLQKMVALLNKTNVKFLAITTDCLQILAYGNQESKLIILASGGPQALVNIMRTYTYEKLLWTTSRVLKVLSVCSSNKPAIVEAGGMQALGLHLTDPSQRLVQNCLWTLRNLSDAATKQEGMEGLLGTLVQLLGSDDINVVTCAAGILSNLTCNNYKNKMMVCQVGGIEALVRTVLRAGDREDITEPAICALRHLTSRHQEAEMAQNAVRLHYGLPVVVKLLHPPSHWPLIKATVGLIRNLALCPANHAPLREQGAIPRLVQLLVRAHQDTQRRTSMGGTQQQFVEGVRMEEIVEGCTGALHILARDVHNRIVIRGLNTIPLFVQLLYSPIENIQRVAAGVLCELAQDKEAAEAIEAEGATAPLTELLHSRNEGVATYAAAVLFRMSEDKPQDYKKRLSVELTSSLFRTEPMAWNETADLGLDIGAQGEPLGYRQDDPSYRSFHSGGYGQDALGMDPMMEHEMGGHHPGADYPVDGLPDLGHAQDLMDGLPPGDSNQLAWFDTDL

[2] = target: T2, full-length beta-Catenin (Uniprot ID P35222) (Homo sapiens, UniProt P35222); assay: Fluorescence polarization IC50 (beta-catenin / 5FAM-TCF4 10-53 competition); type: binding; conditions: fluorescence polarization; read-out: beta-Catenin FP IC50
T2 construct: 10 nM full-length beta-Catenin (Uniprot ID P35222)
T2 sequence (P35222 1-781): T1 sequence (P35222 1-781)

| IC50 [1] [nM] | IC50 [2] [nM] | SMILES |
| --- | --- | --- |
| 5200 | 7 | CCNC(=O)CC[C@H](NC(=O)[C@H](Cc1csc2ccccc12)NC(=O)[C@H](Cc1ccccc1C(F)(F)F)NC(=O)[C@]12CCN(C1)C(=O)OCCCC=CCCCC1(CCCC=CC[C@]3(CCCN3C(C)=O)C(=O)N[C@@H](CC(=O)O)C(=O)N[C@@H](CC(C)(C)C)C(=O)N1)C(=O)N[C@@H](CC(=O)O)C(=O)N[C@@H](Cc1cccc(C(=O)O)c1)C(=O)N[C@@H](CCC(=O)NCC)C(=O)N[C@@H](C)C(=O)N[C@@H](Cc1ccccc1)C(=O)N[C@@H](CC(C)C)C(=O)N2)C(N)=O (stereo partly drawn) [I-2299, Ac-PL3-Asp-Npg-B5-Asp-3COOHF-[NHEt]GlnR-Ala-Phe-Leu-PyrS2-2F3MeF-BztA-NHEt]GlnR-NH2] |
| > 20000 | 5 | CNCCCCN(C)C(=O)CC[C@@H]1NC(=O)[C@H](Cc2cccc(C(=O)O)c2)NC(=O)[C@H](CC(=O)O)NC(=O)C2(CCCC=CCCCOC(=O)N3CC[C@@](C(=O)N[C@@H](Cc4ccsc4)C(=O)N[C@@H](Cc4csc5ccccc45)C(=O)N[C@@H](C)C(N)=O)(C3)NC(=O)[C@H](C(C)C)NC(=O)[C@H](Cc3ccccc3)NC(=O)[C@H](C)NC1=O)CCCC=CC[C@]1(CCCN1C(C)=O)C(=O)N[C@@H](CC(=O)O)C(=O)N[C@@H](CC(C)(C)C)C(=O)N2 (stereo partly drawn) [I-2301, Ac-PL3-Asp-Npg-B5-Asp-3COOHF-[Me2diaminobutane]GlnR-Ala-Phe-Val-PyrS2-3Thi-BztA-Ala-NH2] |
| 2500 | 5 | CCNC(=O)CC[C@@H]1NC(=O)[C@H](Cc2cccc(C(=O)O)c2)NC(=O)[C@H](CC(=O)O)NC(=O)C2(CCCC=CCCCOC(=O)N3CC[C@@](C(=O)N[C@@H](Cc4ccsc4)C(=O)N[C@@H](Cc4csc5ccccc45)C(=O)N[C@@H](C)C(N)=O)(C3)NC(=O)[C@H](C(C)C)NC(=O)[C@H](Cc3ccccc3)NC(=O)[C@H](C)NC1=O)CCCC=CC[C@]1(CCCN1C(C)=O)C(=O)N[C@@H](CC(=O)O)C(=O)N[C@@H](CC(C)(C)C)C(=O)N2 (stereo partly drawn) [I-2302, Ac-PL3-Asp-Npg-B5-Asp-3COOHF-[NHEt]GlnR-Ala-Phe-Val-PyrS2-3Thi-BztA-Ala-NH2] |
| 1200 | 5 | CC(=O)N1CCC[C@]12CC=CCCCC1(CCCC=CCCCOC(=O)N3CC[C@@](C(=O)N[C@@H](Cc4ccsc4)C(=O)N[C@@H](Cc4csc5ccccc45)C(=O)N[C@@H](C)C(N)=O)(C3)NC(=O)[C@H](C(C)C)NC(=O)[C@H](Cc3ccccc3)NC(=O)[C@H](C)NC(=O)[C@H](CCC(=O)N(C)C)NC(=O)[C@H](Cc3cccc(C(=O)O)c3)NC(=O)[C@H](CC(=O)O)NC1=O)NC(=O)[C@H](CC(C)(C)C)NC(=O)[C@H](CC(=O)O)NC2=O (stereo partly drawn) [I-2303, Ac-PL3-Asp-Npg-B5-Asp-3COOHF-[NMe2]GlnR-Ala-Phe-Val-PyrS2-3Thi-BztA-Ala-NH2] |
| > 20000 | 65 | CC(C)COC(=O)N1CCC[C@]12CC=CCCCC1(CCCC=CCCCOC(=O)N3CC[C@@](C(=O)N[C@@H](Cc4ccccc4Cl)C(=O)N[C@@H](Cc4csc5ccccc45)C(=O)N[C@@H](C)C(N)=O)(C3)NC(=O)[C@H](CC(C)C)NC(=O)[C@H](Cc3ccccc3)NC(=O)[C@H](C)NC(=O)[C@H](C)NC(=O)[C@H](Cc3cccc(C(=O)O)c3)NC(=O)[C@H](CC(=O)O)NC1=O)NC(=O)[C@H](CC(C)(C)C)NC(=O)[C@H](CC(=O)O)NC2=O (stereo partly drawn) [I-2305, CO2iBu-PL3-Asp-Npg-B5-Asp-3COOHF-Ala-Ala-Phe-Leu-PyrS2-2C1F-BztA-Ala-NH2] |
| > 20000 | 45 | C[C@@H]1NC(=O)[C@H](C)NC(=O)[C@H](CC(=O)O)NC(=O)[C@H](CC(=O)O)NC(=O)C2(CCCC=CCCCOC(=O)N3CC[C@@](C(=O)N[C@@H](Cc4ccsc4)C(=O)N[C@@H](Cc4csc5ccccc45)C(=O)N[C@@H](CCC(N)=O)C(N)=O)(C3)NC(=O)[C@H](CC(N)=O)NC(=O)[C@H](Cc3ccccc3)NC1=O)CCCC=CCOc1cccc(c1)C(=O)N[C@@H](CC(=O)O)C(=O)N[C@@H](CC(C)(C)C)C(=O)N2 (stereo partly drawn) [I-2306, BzAm3Oallyl-Asp-Npg-B5-Asp-Asp-Ala-Ala-Phe-Asn-PyrS2-3Thi-BztA-Gln-NH2] |
